These results are taken from patent publication US10676429B2, “Sulfamoyl-arylamides and the use thereof as medicaments for the treatment of hepatitis B” (priority 2012, dated 2020).

For orientation: EC50 means the concentration giving half of the maximal effect. In general, CC50 refers to the concentration at which the toxic effect on the cells reaches its halfway point. A high value points to lower toxicity to the cells.

The subject of series [1] is HBV. In words: Anti-HBV activity in stable transfected HepG2.2.15 cell line (HBV DNA from secreted virions, realtime PCR). It counts as cell-based. Conditions: HepG2.2.15 cells, 6 days of treatment, secreted virion HBV DNA, read-out: HepG2 2.15 EC50.
Series [2] has as its system HBV. Kind of series: Anti-HBV activity in HepG2.117 cell line (Tet-off, intracellular HBV DNA, realtime PCR). Conditions: HepG2.117 cells, 3 days of treatment, intracellular HBV DNA, read-out: HepG2 117 EC50. It counts as cell-based.
Series [3] can be described thus: Cytotoxicity in HepG2 cells, 4 days, Resazurin assay. Conditions: human, HepG2 cells. (In general: Resazurin is reduced to fluorescent resorufin, in cell work by metabolically active cells.)
Setting [4] is: Hepatitis B virus, HepG2.2.15, 144 h.
Setting [5] is: Hepatitis B virus, HepG2.117, 72 h.

With `Cc1cc(NC(=O)c2cccc(S(=O)(=O)N[C@@H]3CCCC[C@H]3O)c2)ccc1F` (racemic) [Compound 130], the concentration giving a half-maximal response (EC50) in series [1] (setting [4]) amounted to 880 nM; in series [2] (setting [5]), 1030 nM. Also, the CC50 at 4 days in series [3] is more than 25000 nM.
On the same counts, the results for `Cc1cc(NC(=O)c2cccc(S(=O)(=O)N[C@@H]3CCCC[C@@H]3O)c2)ccc1F` (racemic) [Compound 132] are 590 nM, 730 nM and more than 25000 nM.
`COC(=O)N1CCCC(NS(=O)(=O)c2cccc(C(=O)Nc3ccc(F)c(C)c3)c2)C1` (racemic) [Compound 159]: the concentration giving a half-maximal response (EC50) in series [1] (setting [4]) turned out to be 150 nM. The compound also came in with a cytotoxic concentration (CC50) at 4 days in series [3] of more than 25000 nM.
Take `COC(=O)N1CCCC(NS(=O)(=O)c2cccc(C(=O)Nc3ccc(F)c(C)c3)c2)C1` (racemic) [Compound 159a]: the EC50 in series [1] worked out at 170 nM; in series [2], 860 nM.
On the same counts, the results for `COC(=O)N1CCCC(NS(=O)(=O)c2cccc(C(=O)Nc3ccc(F)c(C)c3)c2)C1` (racemic) [Compound 159b] are 160 nM and 230 nM.
The compound `Cc1cc(NC(=O)c2cccc(S(=O)(=O)NC3CC(=O)N(C)C3)c2)ccc1F` (racemic) [Compound 179] yielded a CC50 at 4 days in series [3] of more than 25000 nM.
On to `Cc1cc(NC(=O)c2cccc(S(=O)(=O)NC3CCCC(O)C3)c2)ccc1F` (single isomer, unassigned) [Compound 134a, N-(4-fluoro-3-methyl-phenyl)-3-[[(1R,3S)-3-hydroxycyclohexyl]sulfamoyl]benzamide or N-(4-fluoro-3-methyl-phenyl)-3-[[(1S,3R)-3-hydroxycyclohexyl]sulfamoyl]benzamide], for which the half-maximal effective concentration (EC50) in series [1] turned out to be 660 nM; in series [2], 720 nM.
For `Cc1cc(NC(=O)c2cccc(S(=O)(=O)NC3CCCC(O)C3)c2)ccc1F` (single isomer, unassigned) [Compound 134b, N-(4-fluoro-3-methyl-phenyl)-3-[[(1R,3S)-3-hydroxycyclohexyl]sulfamoyl]benzamide or N-(4-fluoro-3-methyl-phenyl)-3-[[(1S,3R)-3-hydroxycyclohexyl]sulfamoyl]benzamide], in that order: 570 nM and 200 nM.
In the case of `Cc1cc(NC(=O)c2cccc(S(=O)(=O)NC3CCCC(O)C3)c2)ccc1F` (single isomer, unassigned) [Compound 134c, N-(4-fluoro-3-methyl-phenyl)-3-[[(1R,3R)-3 hydroxycyclohexyl]sulfamoyl]benzamide or N-(4-fluoro-3-methyl-phenyl)-3-[[(1S,3S)-3-hydroxycyclohexyl]sulfamoyl]benzamide], the EC50 in series [1] came to 490 nM; in series [2] it was 380 nM.
For `Cc1cc(NC(=O)c2cccc(S(=O)(=O)NC3CCCC(O)C3)c2)ccc1F` (single isomer, unassigned) [Compound 134d, N-(4-fluoro-3-methyl-phenyl)-3-[[(1R,3R)-3 hydroxycyclohexyl]sulfamoyl]benzamide or N-(4-fluoro-3-methyl-phenyl)-3-[[(1S,3S)-3-hydroxycyclohexyl]sulfamoyl]benzamide], in that order: 250 nM and 1220 nM.
For the compound `Cc1cc(NC(=O)c2cccc(S(=O)(=O)NC3Cc4ccccc4C3O)c2)ccc1F` (single isomer, unassigned) [Compound 141a, N-(4-fluoro-3-methyl-phenyl)-3-[[(1S,2S)-1-hydroxyindan-2-yl]-sulfamoyl]benzamide or N-(4-fluoro-3-methyl-phenyl)-3-[[(1R,2R)-1-hydroxyindan-2-yl]sulfamoyl]benzamide], the half-maximal effective concentration (EC50) in series [1] was 700 nM; in series [2], 1650 nM. This compound registered a CC50 at 4 days in series [3] of more than 25000 nM.
As for `O=C(Nc1ccccc1)c1csc(S(=O)(=O)NC2CCCCC2)n1` [Compound 64], in series [2] (setting [5]), the EC50 is 7830 nM. The compound also showed a 50% cytotoxic concentration (CC50) at 4 days in series [3] of more than 25000 nM.
For the compound `CC1(NS(=O)(=O)c2cccc(C(=O)Nc3ccc(F)cc3)c2)CCOCC1` [Compound 83], the EC50 worked out at 1040 nM in series [1] (setting [4]) and 1230 nM in series [2] (setting [5]).
Turning to `Cc1cc(NC(=O)c2cccc(S(=O)(=O)NC3CCCC(O)C3)c2)ccc1F` (stereo not shown) [Compound 134], in series [2], the EC50 was 570 nM. This compound also yielded a CC50 at 4 days in series [3] of more than 25000 nM.
On to `Cc1c(Br)cc(S(=O)(=O)N[C@H]2CCOC2)c(F)c1C(=O)Nc1ccc(F)c(F)c1` [Compound 187], for which the EC50 in series [2] (setting [5]) was 950 nM. The CC50 at 4 days in series [3] was more than 25000 nM.
`Cc1ccc(S(=O)(=O)N[C@H]2CCOC2)c(F)c1C(=O)Nc1ccc(F)c(F)c1` [Compound 188]: the EC50 in series [2] (setting [5]) was 240 nM. Also, in series [3], the CC50 at 4 days was more than 25000 nM.
On the same counts, the results for `Cc1cc(NC(=O)c2c(C)ccc(S(=O)(=O)N[C@H]3CCOC3)c2F)ccc1F` [Compound 189] are 350 nM and more than 25000 nM.
On the same counts, the results for `Cc1cc(NC(=O)c2c(C)c(Br)cc(S(=O)(=O)NC3(C)COC3)c2F)ccc1F` [Compound 190] are 270 nM and more than 25000 nM.
On the same counts, the results for `Cc1ccc(S(=O)(=O)NC2(C)COC2)c(F)c1C(=O)Nc1cc(F)c(F)c(Cl)c1` [Compound 192] are 190 nM and more than 25000 nM.
On to `Cc1ccc(S(=O)(=O)N[C@H](C)C(F)(F)F)c(F)c1C(=O)Nc1cc(F)c(F)c(Cl)c1` [Compound 193], for which, in series [2] (setting [5]), the EC50 stood at 100 nM. In addition, it took 13500 nM to reach half-maximal cytotoxicity in series [3] (CC50 at 4 days).
On the same counts, the results for `Cc1cc(NC(=O)c2c(F)ccc(S(=O)(=O)N[C@H]3CCOC3)c2F)ccc1F` [Compound 197] are 90 nM and more than 25000 nM.
For the compound `O=C(Nc1ccc(F)c(Br)c1)c1c(F)ccc(S(=O)(=O)N[C@H]2CCOC2)c1F` [Compound 198], the EC50 in series [2] (setting [5]) was 150 nM. In series [3], this compound had a CC50 at 4 days of more than 25000 nM.
For `N#Cc1cc(NC(=O)c2c(F)ccc(S(=O)(=O)N[C@H]3CCOC3)c2F)ccc1F` [Compound 199], the EC50 in series [2] (setting [5]) was determined as 430 nM. This compound registered a CC50 at 4 days in series [3] of more than 25000 nM.
As for `O=C(Nc1ccc(F)c(C(F)(F)F)c1)c1c(F)ccc(S(=O)(=O)N[C@H]2CCOC2)c1F` [Compound 200], in series [2] (setting [5]), the concentration giving a half-maximal response (EC50) was determined as 450 nM. In series [3], this compound yielded a CC50 at 4 days of more than 25000 nM.
For `CC(C)NS(=O)(=O)c1ccc(F)c(C(=O)Nc2ccc(F)c(F)c2)c1F` [Compound 202], in that order: 110 nM and more than 25000 nM.
For `CC(C)NS(=O)(=O)c1ccc(F)c(C(=O)Nc2cccc(C(F)(F)F)c2)c1F` [Compound 203], in that order: 240 nM and 16700 nM.
Consider `Cc1cc(NC(=O)c2c(C)ccc(S(=O)(=O)NC3(C)COC3)c2F)ccc1F` [Compound 204], for which, in series [2] (setting [5]), the EC50 turned out to be 90 nM. The CC50 at 4 days in series [3] is more than 25000 nM.
On the same counts, the results for `Cc1cc(NC(=O)c2c(C)ccc(S(=O)(=O)NC(C)(C)C)c2F)ccc1F` [Compound 205] are 350 nM and more than 25000 nM.
On the same counts, the results for `Cc1ccc(S(=O)(=O)NC(C)(C)C)c(F)c1C(=O)Nc1ccc(F)c(F)c1` [Compound 206] are 640 nM and more than 25000 nM.
For `CC1(NS(=O)(=O)c2ccc(Cl)c(C(=O)Nc3ccc(F)c(C#N)c3)c2F)COC1` [Compound 207], in that order: more than 1000 nM and more than 25000 nM.
On to `CC1(NS(=O)(=O)c2ccc(Cl)c(C(=O)Nc3ccc(F)c(C(F)(F)F)c3)c2F)COC1` [Compound 208], for which, in series [2] (setting [5]), the EC50 is more than 1000 nM. In series [3], this compound came in with a CC50 at 4 days of more than 25000 nM.
For `Cc1cc(NC(=O)c2c(Cl)ccc(S(=O)(=O)NC3(C)COC3)c2F)cc(F)c1F` [Compound 209], in that order: 150 nM and more than 25000 nM.
On the same counts, the results for `CC1(NS(=O)(=O)c2ccc(Cl)c(C(=O)Nc3cc(F)c(F)c(Cl)c3)c2F)COC1` [Compound 210] are 460 nM and more than 25000 nM.
For `CC1(NS(=O)(=O)c2ccc(F)c(C(=O)Nc3ccc(F)c(F)c3)c2Cl)COC1` [Compound 211], in that order: 650 nM and more than 25000 nM.
On to `CC1(NS(=O)(=O)c2ccc(F)c(C(=O)Nc3ccc(F)c(C(F)(F)F)c3)c2Br)COC1` [Compound 212], for which the half-maximal effective concentration (EC50) in series [2] (setting [5]) is 7300 nM. In series [3], this compound showed a half-maximal cytotoxic concentration (CC50) at 4 days of more than 25000 nM.
For `Cc1cc(NC(=O)c2c(Br)ccc(S(=O)(=O)NC3(C)COC3)c2F)ccc1F` [Compound 213], in that order: 280 nM and more than 25000 nM.
Turning to `CC1(NS(=O)(=O)c2ccc(Br)c(C(=O)Nc3ccc(F)c(C#N)c3)c2F)COC1` [Compound 214], the EC50 in series [2] (setting [5]) is more than 1000 nM. In series [3], this compound showed a CC50 at 4 days of more than 25000 nM.
Turning to `CC1(NS(=O)(=O)c2ccc(Br)c(C(=O)Nc3ccc(F)c(C(F)(F)F)c3)c2F)COC1` [Compound 215], the EC50 in series [2] (setting [5]) was more than 1000 nM. The compound further returned a CC50 at 4 days in series [3] of more than 25000 nM.
For `Cc1cc(NC(=O)c2c(Br)ccc(S(=O)(=O)NC3(C)COC3)c2F)cc(F)c1F` [Compound 216], in that order: 290 nM and more than 25000 nM.
On the same counts, the results for `CC1(NS(=O)(=O)c2cccc(C(=O)Nc3ccc(F)c(C(F)(F)F)c3)c2F)COC1` [Compound 219] are 460 nM and more than 25000 nM.
For `Cc1cc(NC(=O)c2cccc(S(=O)(=O)NC(C)(C)C)c2F)ccc1F` [Compound 221], in that order: 130 nM and more than 25000 nM.
For the compound `Cc1cc(NC(=O)c2cccc(S(=O)(=O)NC3(C)CCOC3)c2)ccc1F` (stereo not shown) [Compound 223], the EC50 in series [2] (setting [5]) amounted to 210 nM. Besides, the 50% cytotoxic concentration (CC50) at 4 days in series [3] was more than 25000 nM.
Turning to `Cc1cc(NC(=O)c2cc(S(=O)(=O)NC3(C)COC3)ccc2Cl)ccc1F` [Compound 232], the EC50 in series [2] (setting [5]) was determined as 310 nM. This compound showed a half-maximal cytotoxic concentration (CC50) at 4 days in series [3] of more than 25000 nM.
